Measurements published in patent US10463048B2, “Plant disease control composition and plant disease control method” (SUMITOMO CHEMICAL COMPANY, LIMITED, priority 2015, dated 2019).

How the values were obtained:
Format in all cases: in vivo
Details in all cases: 20 days after
[1] = tested on: phytopathogenic Fusarium (Fusarium sp.); experiment: Test Example 23: soybean seed treatment, Fusarium pot test
Protocol: (§1) If the effect by the combination of two active ingredients is greater than that of the estimated value E, which is calculated by the Colby's equation as follows, the effect is regarded as synergistic. E=X+Y−X·Y/100 wherein, E=Control value when using the mixture of the active ingredients A and B at the concentrations m and n (amount of the active ingredient), respectively. X=Control value when using the active ingredient A at the concentration m (amount of the active ingredient). Y=Control value when using the active ingredient B at the concentration n (amount of the active ingredient).
Boscalid was dissolved in acetone/Tween 20 (weight ratio=95:5) to prepare a chemical liquid. In a rotary seed treatment machine (trade name: HEGE11, manufactured by WINTERSTEIGER), soybean seeds (variety:“Hatayutaka”) were treated by smearing treatment using the chemical liquid and the flowable formulation of the present bacterial strain obtained in Formulation Example 13 and sedaxane flowable formulation (43.7% flowable formulation, trade name: Vibrance, Syngenta Crop Protection LLC), so that the soybean seeds retain the bacteria, sedaxane and boscalid in the amount shown in Table 8.
Cultivation was carried out in a greenhouse under irrigation (“treated compartment”). The plants were investigated 20 days after for the number of diseased plants, and the disease incidence was calculated by the following “Equation 1”. Also, similar procedures were conducted using untreated soybean seeds, instead of the treated soybean seeds, as described above for the treated compartment (“untreated compartment”).
The plants were investigated 20 days after for the number of diseased plants, and the disease incidence was calculated by the following “Equation 1”. The control value of the treated compartment was calculated by the following equation “Equation 2”, based on the disease incidences of the treated compartment and the untreated compartment. Disease incidence (%)=100×(number of diseased plant/total number of seeded seeds): Equation 1 Control value (%)=100×[(disease incidence in untreated compartment−disease incidence in treated compartment)/disease incidence in untreated compartment]: Equation 2

[2] = tested on: phytopathogenic Fusarium (Fusarium sp.); experiment: Test Example 22: soybean seed treatment, Fusarium pot test
Protocol: If the effect by the combination of two active ingredients is greater than that of the estimated value E, which is calculated by the Colby's equation as follows, the effect is regarded as synergistic. E=X+Y−X·Y/100 wherein, E=Control value when using the mixture of the active ingredients A and B at the concentrations m and n (amount of the active ingredient), respectively. X=Control value when using the active ingredient A at the concentration m (amount of the active ingredient). Y=Control value when using the active ingredient B at the concentration n (amount of the active ingredient). […]
Cultivation was carried out in a greenhouse under irrigation (“treated compartment”). The plants were investigated 20 days after for the number of diseased plants, and the disease incidence was calculated by the following “Equation 1”. […] The plants were investigated 20 days after for the number of diseased plants, and the disease incidence was calculated by the following “Equation 1”. The control value of the treated compartment was calculated by the following equation “Equation 2”, based on the disease incidences of the treated compartment and the untreated compartment. […]

[3] = tested on: damping-off fungus (Rhizoctonia solani); experiment: Test Example 21: corn seed treatment, damping-off pot test
Protocol: A chemical liquid wherein penflufen is dissolved in acetone/Tween 20 (weight ratio=95:5) and a chemical liquid wherein fluxapyroxad is dissolved in acetone/Tween 20 (weight ratio=95:5) were prepared independently. In a rotary seed treatment machine (trade name: HEGE11, manufactured by WINTERSTEIGER), corn seeds (variety: yellow dent corn) were treated by smearing treatment using one of these chemical liquid and the flowable formulation of the present bacterial strain obtained in Formulation Example 13, so that the corn seeds retain the present bacterial strain and/or the compound in the amount shown in Table 6.
Cultivation was carried out in a greenhouse under irrigation (“treated compartment”). The plants were investigated 20 days after for the number of diseased plants, and the disease incidence was calculated by the following “Equation 1”. Similar procedures were conducted using untreated corn seeds, instead of the treated corn seeds, as described above for the treated compartment (“untreated compartment”). The plants were investigated 20 days after for the number of diseased plants, and the disease incidence was calculated by the following “Equation 1”. The control value of the treated compartment was calculated by the following equation “Equation 2”, based on the disease incidences of the treated compartment and the untreated compartment. Disease incidence (%)=100×(number of diseased plant/total number of seeded seeds): Equation 1 Control value (%)=100×[(disease incidence in untreated compartment−disease incidence in treated compartment)/disease incidence in untreated compartment]: Equation 2
as §1

[4] = soybean seeds retaining 0.05 g/Kg seeds of compound alone
[5] = corn seeds retaining 0.005 g/Kg seeds of compound alone

Q: With `O=C(Nc1ccccc1-c1ccc(Cl)cc1)c1cccnc1Cl` [Boscalid, boscalid] as the compound, how does the “Controlling Effect” value [1, 4] read?
A: 23%

Q: What about the “Controlling Effect” value ([1]; soybean seeds retaining 0.1 g/Kg seeds of compound alone) of the same compound?
A: 47%

Q: What does the source list for `O=C(NCCc1ncc(C(F)(F)F)cc1Cl)c1ccccc1C(F)(F)F` [Fluopyram, fluopyram]?
A: Controlling Effect ([2]; soybean seeds retaining 0.025 g/Kg seeds of compound alone): 29%; Controlling Effect [2, 4]: 44%

Q: Which “Controlling Effect” value ([3]; corn seeds retaining 0.0025 g/Kg seeds of compound alone) does the source give for `Cn1cc(C(=O)Nc2ccccc2-c2cc(F)c(F)c(F)c2)c(C(F)F)n1` [Fluxapyroxad, fluxapyroxad] here?
A: 31%

Q: And the “Controlling Effect” value [3, 5]?
A: 39%

Q: How did the “Controlling Effect” value [3, 5] turn out when `Cc1nn(C)c(F)c1C(=O)Nc1ccccc1C(C)CC(C)C` (stereo not shown) [Penflufen, penflufen] was run?
A: 25%

Q: What about the “Controlling Effect” value ([3]; corn seeds retaining 0.01 g/Kg seeds of compound alone) of the same compound?
A: 42%

Q: `Cn1cc(C(=O)Nc2ccccc2C2CC2C2CC2)c(C(F)F)n1` (stereo not shown) [Sedaxane, sedaxane] was tested. Which “Controlling Effect” value ([1]; soybean seeds retaining 0.005 g/Kg seeds of compound alone) did it give?
A: 32%

Q: What about the “Controlling Effect” value ([1]; soybean seeds retaining 0.01 g/Kg seeds of compound alone) of the same compound?
A: 35%
